Results as given in patent US5922891A, “2-substituted 1,8-dihydroxy-9(10H)-anthracenone pharmaceuticals” (priority 1997, dated 1999).

Key:
HaCaT cells = test: Antiproliferative activity against HaCaT cells (human keratinocyte cell line); type: cell-based; conditions: 48 h, read-out: AA IC50 (antiproliferative activity)
Method: HaCaT cells were grown in Dulbecco's modified Eagle's medium (DMEM, No. 041-11954A, Gibco) supplemented with 10% fetal calf serum, penicillin (100 U/mL), and streptomycin (100 μg/mL) in a humidified incubator containing 8% CO2 at 37° C. Cells (2.5·10^4 /1.1 ml per well) were seeded on 24-well multidishes and grown in DMEM. After 24 hours of growth, the medium was replaced with fresh medium and a test compound (0.1-5 μM) was added from freshly made stock solutions, which were prepared in DMSO and diluted with DMEM. The final concentration of DMSO in the culture medium was 0.2%. Controls were performed using DMSO or medium alone. Forty-eight hours after addition of a test compound to the culture, the medium was removed and each well was rinsed with phosphate-buffered saline (PBS, 100 μL). The cells were then incubated with sterile 0.5% trypsin, 0.2% EDTA in PBS for 20 minutes at 37° C. The detached cells from each well were suspended in DMEM and dispersed as single cells by gentle pipetting through an Eppendorf pipette. Cell growth was determined directly by counting the keratinocytes on a Neubauer counting chamber using phase contrast microscopy. Inhibition of cell proliferation was calculated by a comparison of the mean value of the test compound (N=3) with the control (N=6-8) activity: (1-test compound/control)×100.

[1] = Deoxyribose degradation as a measure of hydroxyl radical formation; type: biochemical; conditions: 75 μM test compound; controls < 0.1
Method: ^c Deoxyribose degradation as a measure of hydroxyl radical formation
Indicated values are μmoles of malondialdehyde per mmole of deoxyribos
released by 75 μM test compound (controls < 0.1).
Degradation of deoxyribose provides a measurement of the amount of hydroxyl radical formation caused by the test compounds. The assay used to determine degradation of 2-deoxy-D-ribose followed generally the procedures of Gutteridge, J. M. C., Biochem. J., 224: 761-767 (1984) and Laughton, et al., Biochem. Pharmacol., 38: 2859-2865 (1989). The following reagents were added to glass tubes in the order and at the final concentrations listed. 0.3 mL kH2 PO4 --KOH buffer, pH 7.4 (30 mM), 0.2 ml double distilled H2 O, 0.2 ml 2-deoxy-D-ribose (2 mM), 0.2 ml FeCl3.6H2 O (0.1 mM), 0.1 ml 2-substituted anthracenone ([…]). Stock solutions of each of the 2-substituted anthracenone compounds were made up fresh before use. Appropriate blanks and controls using an acetronitrile vehicle were performed.
Final reaction volumes were standardized to 1.0 ml. The reaction mixtures were incubated for 2 hours at 37° C. in a shaking water bath at 50 rpm. 1 ml of 2.8% (w/v) trichloracetic acid and 1 ml of 1% (w/v in 0.05 N NaOH) 2-thiobarbituric acid (TBA) were added, and the samples were heated at 100° C. for 15 minutes and then cooled in an ice bath (5 minutes). 2 ml of each reaction mixture was treated with 0.05 ml of 36% (w/v) HCl and 2 of 1-butanol, followed by vigorous shaking with a vortex mixer (Heidolph) for 15 seconds. The organic layer was separated by centrifugation at 3000 rpm (15 minutes) and absorbance at 532 nm was measured against butanol. Calibration was performed using a malondialdehyde (MDA) standard prepared by hydrolysis of 1,1,3,3-tetraethoxypropane (Gutteridge, J. M. C., Anal. Biochem., 69: 518-526 (1975). TBA reactive material was expressed in terms of μmol MDA per μmol deoxyribose. The results of the assay are provided in Table I.

5-LO in bovine PMNL = target: T1, 5-LO in bovine PMNL (Bos taurus, UniProt F1MQ78); test: Inhibition of 5-lipoxygenase (5-HETE and LTB4 biosynthesis) in Ca-ionophore-stimulated bovine PMNL; type: cell-based; conditions: N = 3 or more
T1 construct: The purified PMNLs were suspended at a concentration of; endogenous in cells; host or cells: polymorphonuclear leukocytes isolated from bovine blood
T1 sequence (F1MQ78 1-674): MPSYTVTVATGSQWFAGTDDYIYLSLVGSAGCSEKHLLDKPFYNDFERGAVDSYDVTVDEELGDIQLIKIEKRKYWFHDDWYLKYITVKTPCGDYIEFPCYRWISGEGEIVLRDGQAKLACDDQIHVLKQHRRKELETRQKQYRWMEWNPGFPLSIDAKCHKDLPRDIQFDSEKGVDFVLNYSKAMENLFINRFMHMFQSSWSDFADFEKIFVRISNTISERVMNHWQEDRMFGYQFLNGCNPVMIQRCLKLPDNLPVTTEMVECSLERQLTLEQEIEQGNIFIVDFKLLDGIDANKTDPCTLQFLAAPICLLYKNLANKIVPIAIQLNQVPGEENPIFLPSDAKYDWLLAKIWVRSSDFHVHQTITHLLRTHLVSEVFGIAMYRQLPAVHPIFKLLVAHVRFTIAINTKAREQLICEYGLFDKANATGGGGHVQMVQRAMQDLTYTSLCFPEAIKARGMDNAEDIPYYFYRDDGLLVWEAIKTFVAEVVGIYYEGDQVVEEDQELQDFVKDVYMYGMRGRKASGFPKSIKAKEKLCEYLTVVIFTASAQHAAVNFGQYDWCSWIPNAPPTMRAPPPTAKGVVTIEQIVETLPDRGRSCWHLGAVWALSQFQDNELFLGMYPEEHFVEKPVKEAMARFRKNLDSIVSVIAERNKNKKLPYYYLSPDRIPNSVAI
Method: Briefly, PMNLs were prepared from sodium EDTA-anticoagulated bovine blood, essentially as described by Walstra, P. et al., (Biochem. Biophys. Acta, 795:499-503 (1984)). Contaminating platelets were removed by repeated centrifugations at 100 g for 20 minutes. […] Cell counts were conducted with a Sysmex micro cell counter CC-130. Preincubation was performed with 2.4 ml of the suspension and 10 μl of a DMSO stock solution of test compounds at the desired concentrations in phosphate buffered saline (PBS) or vehicle control (DMSO at final concentration of 0.4%) for 15 minutes at 37° C. in a shaking water bath at 50 rpm. […] The incubation mixture was held on ice bath for 20 minutes and then centrifuged at 4000 g for 5 minutes at 0° C. The supernatant was diluted with 5 ml of water and passed through a prewashed (10 ml of methanol and 5 ml of water, sequentially) octadecylsilane reversed phase cartridge (Baker). The eicosanoids were eluted with 3 ml of methanol, diluted with 3 ml of water and subjected to reversed phase HPLC analysis using a 250×4 mm column packed with Nucleosil C18 (7 μm particles; Bischoff, Leonberg, Germany). The isocratic elution conditions of LTB4 were tetrahydrofuran (THF)/methanol/water/acetic acid (25+30+45+0.1), adjusted to pH 5.5 with concentrated NH3, at a flow rate of 0.9 ml/min (Kontron 420 pump), monitored at 280 nm with a Kontron 735 LC UV detector. 5-HETE was monitored at 232 nm using methanol/water/acetic acid (77+23+0.1), pH 5.5 and a flow rate 1.0 ml/min. Data were recorded on a MacLab data acquisition system (WissTech, Germany) and analysis was performed using the application Peaks on an Apple Macintosh Quadra 700 computer. Integrated areas of the peaks were compared to a PGB2 internal standard and to external standards of authentic samples. Molar absorption coefficients of Samuelsson et al., Borgeat, P. and B. Samuelsson, (Proc. Natl. Acad. Sci. USA, 76:2148-2152 (1979)), were used for making calculations. Inhibition was calculated by a comparison of the mean value of test compound (n=3) with control (n=6-8) activity: (1-test compound/control)×100.
See Walstra, P. et al., Biochem Biophys. Acta, 795:499-503 (1984); and Dannhardt et al. J. Pharm. Pharmacol., 44:419-424 (1992). […] (Schroder, J. M., J. Invest. Dermatol., 87:624-629 (1986); Tanzer, et al., Arch. Pharm. (Weinheim), 324:841-846 (1991)).

| SMILES | IC50 (HaCaT cells) [µM] | DD (deoxyribose degradation, malondialdehyde released) [1] | IC50 (5-LO in bovine PMNL) [µM] |
| --- | --- | --- | --- |
| O=C(O)CCc1ccc2c(c1O)C(=O)c1c(O)cccc1C2 [IIA, 3-(9,10-Dihydro-1,8-dihydroxy-9-oxo-2-anthracene) propionic acid, reference compound] | > 5 | 2.67 ± 0.23 μmol of MDA/mmol | – |
| COC(=O)c1ccc(Cc2ccc3c(c2O)C(=O)c2c(O)cccc2C3)cc1 [XIB, Methyl 4-[(9,10-Dihydro-1,8-dihydroxy-9-oxo-2-anthracene)methyl]benzoate, reference compound] | – | – | > 30 |
| O=C(CCc1ccc2c(c1O)C(=O)c1c(O)cccc1C2)NO [IIC, N-Hydroxy-3-(9,10-dihydro-1,8-dihydroxy-9-oxo-2-anthracene)propionamide] | 1.3 | 1.67 ± 0.31 μmol of MDA/mmol | – |
| O=C1c2c(O)cccc2Cc2ccc(C(Cc3ccccc3)C(=O)O)c(O)c21 (stereo not shown) [IXA, 2-(9,10-Dihydro-1,8-dihydroxy-9-oxo-2-anthracene)-3-phenylpropionic acid] | > 5 | 3.25 ± 0.45 μmol of MDA/mmol | – |
| O=C(O)c1ccc(C(=O)c2ccc3c(c2O)C(=O)c2c(O)cccc2C3)cc1 [XIIA, 4-[(9,10-Dihydro-1,8-dihydroxy-9-oxo-2-anthracene)oxomethyl]benzoic acid] | > 5 | 1.80 ± 0.14 μmol of MDA/mmol | – |
| CC(C)C(C(=O)NO)c1ccc2c(c1O)C(=O)c1c(O)cccc1C2 (stereo not shown) [VIIIC, N-Hydroxy-2-(9,10-dihydro-1,8-dihydroxy-9-oxo-2-anthracene)-3-methylbutanamide] | 1.5 | 1.66 ± 0.08 μmol of MDA/mmol | – |
| COC(=O)Cc1ccc2c(c1O)C(=O)c1c(O)cccc1C2 [IB, Methyl 9,10-Dihydro-1,8-dihydroxy-9-oxo-2-anthracenacetate] | – | – | > 30 |
| O=C(O)c1ccc(Cc2ccc3c(c2O)C(=O)c2c(O)cccc2C3)cc1 [XIA, 4-[(9,10-Dihydro-1,8-dihydroxy-9-oxo-2-anthracene)methyl]benzoic acid, reference compound] | – | – | 2 |
| CN(O)C(=O)c1ccc(Cc2ccc3c(c2O)C(=O)c2c(O)cccc2C3)cc1 [XID, N-Hydroxy-N-methyl-4-[(9,10-dihydro-1,8-dihydroxy-9-oxo-2-anthracene)methyl]benzamide] | – | 0.97 ± 0.03 μmol of MDA/mmol | – |
| O=C(O)CCCc1ccc2c(c1O)C(=O)c1c(O)cccc1C2 [IIIA, 4-(9,10-Dihydro-1,8-dihydroxy-9-oxo-2-anthracene) butanoic acid, reference compound] | > 5 | 2.61 ± 0.38 μmol of MDA/mmol | – |
| O=C(CCCc1ccc2c(c1O)C(=O)c1c(O)cccc1C2)NO [IIIC, N-Hydroxy-4-(9,10-dihydro-1,8-dihydroxy-9-oxo-2-anthracene)butanamide] | 1.5 | 1.46 ± 0.02 μmol of MDA/mmol | – |
| O=C(O)Cc1ccc2c(c1O)C(=O)c1c(O)cccc1C2 [IA, 9,10-Dihydro-1,8-dihydroxy-9-oxo-2-anthracenacetic acid, reference compound] | > 5 | 3.74 ± 0.23 μmol of MDA/mmol | – |
| O=C(Cc1ccc2c(c1O)C(=O)c1c(O)cccc1C2)NO [IC, N-Hydroxy-(9,10-dihydro-1,8-dihydroxy-9-oxo-2-anthracene)acetamide] | – | 1.89 ± 0.14 μmol of MDA/mmol | – |
| CN(O)C(=O)C(Cc1ccccc1)c1ccc2c(c1O)C(=O)c1c(O)cccc1C2 (stereo not shown) [IXD, N-Hydroxy-N-methyl-2-(9,10-dihydro-1,8-dihydroxy-9-oxo-2-anthracene)-3-phenylpropionamide] | 0.9 | 1.68 ± 0.13 μmol of MDA/mmol | – |
| COC(=O)CCc1ccc2c(c1O)C(=O)c1c(O)cccc1C2 [IIB, Methyl 3-(9,10-Dihydro-1,8-dihydroxy-9-oxo-2-anthracene) propionate] | – | – | > 30 |
| O=C1c2c(O)cccc2Cc2ccc(C(Cc3ccccc3)C(=O)NO)c(O)c21 (stereo not shown) [IXC, N-Hydroxy-2-(9,10-dihydro-1,8-dihydroxy-9-oxo-2-anthracene)-3-phenylpropionamide] | 1.5 | – | – |
| COC(=O)C(C)c1ccc2c(c1O)C(=O)c1c(O)cccc1C2 (stereo not shown) [VIIB, Methyl 2-(9,10-Dihydro-1,8-dihydroxy-9-oxo-2-anthracene) propionate] | – | – | > 30 |
| O=C(NO)c1ccc(Cc2ccc3c(c2O)C(=O)c2c(O)cccc2C3)cc1 [XIC, N-Hydroxy-4-[(9,10-dihydro-1,8-dihydroxy-9-oxo-2-anthracene)methyl]benzamide] | 1.4 | – | – |
| CC(C(=O)O)c1ccc2c(c1O)C(=O)c1c(O)cccc1C2 (stereo not shown) [VIIA, 2-(9,10-Dihydro-1,8-dihydroxy-9-oxo-2-anthracene) propionic acid] | > 5 | – | – |
